Experimental data taken from US10584115B2, “Substituted pyridine and pyrazine BMI-1 inhibitors” (PTC Therapeutics, Inc., priority 2013, dated 2020).

How the values were obtained:
Bmi-1 protein = test: Sandwich ELISA Assay (Bmi-1 protein level in HT-1080 cells after compound treatment); format: cell-based; conditions: Table 1, Bmi-1 sandwich ELISA, read-out: ELISA EC50 value for Bmi-1 protein
In short: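 HT-1080 cells exposed to compounds for 40–48 h at 37 °C (0.5% DMSO final), then lysed. Bmi-1 in lysates measured by sandwich ELISA (mouse monoclonal capture, rabbit anti-Bmi-1 detection, HRP anti-rabbit, TMB), read at OD450 with OD570 reference against a recombinant Bmi-1 standard curve (0–8000 pg/mL).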

Structure (SMILES) | EC50 (Bmi-1 protein) [nM] | melting point [°C]
Fc1cc(F)c2nc(C3CC3)n(-c3cncc(Nc4ccc(OC(F)(F)F)cc4)n3)c2c1 [compound 463, 6-(2-cyclopropyl-4,6-difluoro-1H-benzimidazol-1-yl)-N-[4-(trifluoromethoxy)phenyl]pyrazin-2-amine] | 100 to 3000 | 218 to 220
Cc1cc(Nc2cc(C#N)cc(-c3c(C)nc4ccc(F)cn34)n2)cnc1OC(F)F [compound 470, 2-{[6-(difluoromethoxy)-5-methylpyridin-3-yl]amino}-6-(6-fluoro-2-methylimidazo[1,2-a]pyridin-3-yl)pyridine-4-carbonitrile] | 100 to 3000 | 219 to 222
Cc1cc(Nc2cc(C#N)cc(-c3c(C)nc4c(F)cc(F)cn34)n2)cnc1OC(F)F [compound 471, 2-{[6-(difluoromethoxy)-5-methylpyridin-3-yl]amino}-6-(6,8-difluoro-2-methylimidazo[1,2-a]pyridin-3-yl)pyridine-4-carbonitrile] | 100 to 3000 | 236 to 238
N#Cc1cc(Nc2ccc(C(F)(F)F)cc2)nc(-n2c(C3CC3)nc3c(F)cc(F)cc32)c1 [compound 474, 2-(2-cyclopropyl-4,6-difluoro-1H-benzimidazol-1-yl)-6-{[4-(trifluoromethyl)phenyl]amino}pyridine-4-carbonitrile] | 10 to 100 | 233 to 235
N#Cc1cc(Nc2ccc(OC(F)F)cc2)nc(-n2c(C3CC3)nc3c(F)cc(F)cc32)c1 [compound 475, 2-(2-cyclopropyl-4,6-difluoro-1H-benzimidazol-1-yl)-6-{[4-(difluoromethoxy)phenyl]amino}pyridine-4-carbonitrile] | 10 to 100 | 168 to 170
N#Cc1cc(Nc2ccc(OC(F)F)nc2)nc(-n2c(C3CC3)nc3c(F)cc(F)cc32)c1 [compound 478, 2-(2-cyclopropyl-4,6-difluoro-1H-benzimidazol-1-yl)-6-{[6-(difluoromethoxy)pyridin-3-yl]amino}pyridine-4-carbonitrile] | 10 to 100 | 207 to 209
Cc1nc2ccc(F)cn2c1-c1cncc(Nc2ccc(OC(F)F)nc2)n1 [compound 480, N-[6-(difluoromethoxy)pyridin-3-yl]-6-(6-fluoro-2-methylimidazo[1,2-a]pyridin-3-yl)pyrazin-2-amine] | 100 to 3000 | 204 to 207
FC(F)c1nc2ccccc2n1-c1cncc(Nc2ccc(C(F)(F)F)cc2)n1 [compound 481, 6-[2-(difluoromethyl)-1H-benzimidazol-1-yl]-N-[4-(trifluoromethyl)phenyl]pyrazin-2-amine] | 10 to 100 | 229 to 231
FC(F)Oc1ccc(Nc2cncc(-n3c(C(F)F)nc4ccccc43)n2)cc1 [compound 482, N-[4-(difluoromethoxy)phenyl]-6-[2-(difluoromethyl)-1H-benzimidazol-1-yl]pyrazin-2-amine] | 10 to 100 | 213 to 216
Fc1cc(Nc2cncc(-n3c(C(F)F)nc4ccccc43)n2)ccc1OC(F)F [compound 483, N-[4-(difluoromethoxy)-3-fluorophenyl]-6-[2-(difluoromethyl)-1H-benzimidazol-1-yl]pyrazin-2-amine] | 10 to 100 | 220 to 222
N#Cc1cc(Nc2ccc(C(F)(F)F)cc2)nc(-n2c(C(F)F)nc3ccccc32)c1 [compound 484, 2-[2-(difluoromethyl)-1H-benzimidazol-1-yl]-6-{[4-(trifluoromethyl)phenyl]amino}pyridine-4-carbonitrile] | 10 to 100 | 225 to 227
Fc1ccc2nc(C3CCC3)n(-c3cncc(Nc4ccc(C(F)(F)F)cc4)n3)c2c1 [compound 485, 6-(2-cyclobutyl-6-fluoro-1H-benzimidazol-1-yl)-N-[4-(trifluoromethyl)phenyl]pyrazin-2-amine] | 100 to 3000 | 289 to 291
Fc1ccc2nc(C(F)F)n(-c3cncc(Nc4ccc(C(F)(F)F)cc4)n3)c2c1 [compound 486, 6-[2-(difluoromethyl)-6-fluoro-1H-benzimidazol-1-yl]-N-[4-(trifluoromethyl)phenyl]pyrazin-2-amine] | 10 to 100 | 197 to 199
Cc1cn2c(-c3cc(C#N)cc(Nc4ccc(C(F)(F)F)cc4)n3)c(C)nc2c(C)n1 [compound 487, 2-{[4-(trifluoromethyl)phenyl]amino}-6-(2,6,8-trimethylimidazo[1,2-a]pyrazin-3-yl)pyridine-4-carbonitrile] | 10 to 100 | 237 to 238
Cc1cn2c(-c3cncc(Nc4ccc(C(F)(F)F)cc4)n3)c(C)nc2c(C)n1 [compound 488, N-[4-(trifluoromethyl)phenyl]-6-(2,6,8-trimethylimidazo-[1,2-a]pyrazin-3-yl)pyrazin2-amine] | 10 to 100 | 102 to 105
Cc1cn2c(-c3cc(C#N)cc(Nc4ccc(C(F)(F)F)cc4)n3)c(C3CC3)nc2c(C)n1 [compound 491, 2-(2-cyclopropyl-6,8-dimethylimidazo[1,2-a]pyrazin-3-yl)-6-{[4-(trifluoromethyl)phenyl]amino}pyridine-4-carbonitrile] | 100 to 3000 | 150 to 152
Cc1nc2cc(F)c(F)cc2n1-c1cncc(Nc2ccc(C(F)F)cc2)n1 [compound 501, 6-(5,6-difluoro-2-methyl-1H-benzimidazol-1-yl)-N-[4-(difluoromethyl)phenyl]pyrazin-2-amine] | 10 to 100 | 209 to 211
Fc1ccn2nc(C3CC3)c(-c3cncc(Nc4ccc(C(F)(F)F)cc4)n3)c2c1 [compound 535, 6-(2-cyclopropyl-5-fluoropyrazolo[1,5-a]pyridin-3-yl)-N-[4-(trifluoromethyl)phenyl]pyrazin-2-amine] | 10 to 100 | 122 to 125
[O-][n+]1cc(Nc2ccc(C(F)(F)F)cc2)nc(-c2c(C3CC3)nn3ccc(F)cc23)c1 [compound 536, 6-(2-cyclopropyl-5-fluoropyrazolo[1,5-a]pyridin-3-yl)-N-[4-(trifluoromethyl)phenyl]pyrazin-2-amine 4-oxide] | 10 to 100 | 183 to 186
CCc1nn2ccc(F)cc2c1-c1cncc(Nc2ccc(C(F)(F)F)cc2)n1 [compound 551, 6-(2-ethyl-5-fluoropyrazolo[1,5-a]pyridin-3-yl)-N-[4-(trifluoromethyl)phenyl]pyrazin-2-amine] | 100 to 3000 | 129 to 131

More lines, now with the values ahead:

EC50 (Bmi-1 protein) [nM] | melting point [°C] | Structure (SMILES)
10 to 100 | 202 to 203 | Fc1cc(F)c2nc(C3CC3)n(-c3cncc(Nc4ccc(OC(F)F)cc4)n3)c2c1 [compound 462, 6-(2-cyclopropyl-4,6-difluoro-1H-benzimidazol-1-yl)-N-[4-(difluoromethoxy)phenyl]pyrazin-2-amine]
10 to 100 | 267 to 270 | Fc1cc(F)c2nc(C3CC3)n(-c3cncc(Nc4ccc(C(F)(F)F)nc4)n3)c2c1 [compound 464, 6-(2-cyclopropyl-4,6-difluoro-1H-benzimidazol-1-yl)-N-[6-(trifluoromethyl)pyridin-3-yl]pyrazin-2-amine]
10 to 100 | 249 to 251 | N#Cc1cc(Nc2ccc(C(F)(F)F)cc2)nc(-c2c(C(F)F)nc3ccc(F)cn23)c1 [compound 466, 2-[2-(difluoromethyl)-6-fluoroimidazo[1,2-a]pyridin-3-yl]-6-{[4-(trifluoromethyl)phenyl]amino}pyridine-4-carbonitrile]
1 to 10 | 215 to 217 | N#Cc1cc(Nc2ccc(OC(F)F)cc2)nc(-c2c(C(F)F)nc3ccc(F)cn23)c1 [compound 467, 2-{[4-(difluoromethoxy)phenyl]amino}-6-[2-(difluoromethyl)-6-fluoroimidazo[1,2-a]pyridin-3-yl]pyridine-4-carbonitrile]
10 to 100 | 239 to 241 | Cc1cc(Nc2cc(C#N)cc(-c3c(C(F)F)nc4ccc(F)cn34)n2)cnc1OC(F)F [compound 468, 2-{[6-(difluoromethoxy)-5-methylpyridin-3-yl]amino}-6-[2-(difluoromethyl)-6-fluoroimidazo[1,2-a]pyridin-3-yl]pyridine-4-carbonitrile]
10 to 100 | 285 to 288 | N#Cc1cc(Nc2ccc(C(F)(F)F)nc2)nc(-c2c(C(F)F)nc3ccc(F)cn23)c1 [compound 469, 2-[2-(difluoromethyl)-6-fluoroimidazo[1,2-a]pyridin-3-yl]-6-{[6-(trifluoromethyl)pyridin-3-yl]amino}pyridine-4-carbonitrile]
1 to 10 | 180 to 182 | Fc1ccc2nc(C(F)F)c(-c3cncc(Nc4ccc(C(F)(F)F)cc4)n3)n2c1 [compound 472, 6-[2-(difluoromethyl)-6-fluoroimidazo[1,2-a]pyridin-3-yl]-N-[4-(trifluoromethyl)phenyl]pyrazin-2-amine]
< 1 | 167 to 169 | Fc1ccc2nc(C(F)F)c(-c3cncc(Nc4ccc(OC(F)F)cc4)n3)n2c1 [compound 473, N-[4-(difluoromethoxy)phenyl]-6-[2-(difluoromethyl)-6-fluoroimidazo[1,2-a]pyridin-3-yl]pyrazin-2-amine]
1 to 10 | 225 to 227 | Fc1ccc2nc(C(F)F)c(-c3cncc(Nc4ccc(OC(F)F)nc4)n3)n2c1 [compound 479, N-[6-(difluoromethoxy)pyridin-3-yl]-6-[2-(difluoromethyl)-6-fluoroimidazo[1,2-a]pyridin-3-yl]pyrazin-2-amine]
1 to 10 | 140 to 141 | Cc1cn2c(-c3cncc(Nc4ccc(OC(F)F)cc4)n3)c(C)nc2c(C)n1 [compound 489, N-[4-(difluoromethoxy)phenyl]-6-(2,6,8-trimethylimidazo[1,2-a]pyrazin-3-yl)pyrazin-2-amine]
